“Also recorded” adds a separate entry of the source. Each block holds one compound with its values, some of them ahead of it.
Tests used:
NTPDase [1] = target: T1, NTPDase (Bos taurus, UniProt O18956); assay: NTPDase inhibition, ATP as substrate (Dixon plots); type: biochemical, bovine
T1 sequence (O18956 1-513): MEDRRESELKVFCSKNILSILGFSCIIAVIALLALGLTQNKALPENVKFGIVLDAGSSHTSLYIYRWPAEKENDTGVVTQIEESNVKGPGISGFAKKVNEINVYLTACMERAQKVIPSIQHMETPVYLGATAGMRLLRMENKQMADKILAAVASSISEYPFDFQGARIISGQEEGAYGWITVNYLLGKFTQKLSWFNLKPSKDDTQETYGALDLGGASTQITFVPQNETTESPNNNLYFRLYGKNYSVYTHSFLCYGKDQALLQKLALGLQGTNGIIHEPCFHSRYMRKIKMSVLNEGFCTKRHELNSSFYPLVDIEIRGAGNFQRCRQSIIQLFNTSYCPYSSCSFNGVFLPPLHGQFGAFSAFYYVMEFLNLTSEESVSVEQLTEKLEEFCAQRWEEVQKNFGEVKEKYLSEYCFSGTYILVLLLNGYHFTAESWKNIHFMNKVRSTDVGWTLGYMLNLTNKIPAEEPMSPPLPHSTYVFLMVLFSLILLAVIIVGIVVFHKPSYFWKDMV
Protocol: Isolation of particulate fractions. […] Briefly, bovine spleens were cut in small pieces and homogenized (15-20%) with a Polytron in Tris-saline buffer supplemented with SBTI and PMSF as protease inhibitors. After filtration with cheesecloth and centrifugation at 600 g the supernatant is centrifuged at 22,000 g for 90 min, and the resulting pellet is suspended in bicarbonate buffer and loaded on a sucrose cushion (40%) and centrifuged for two hours at 100,000 g. The fraction floating on the cushion is harvested in five volumes of bicarbonate buffer. […] NTPDase assays. Enzyme activity was routinely measured by the release of inorganic phosphorus with the malachite green colorimetric assay (61). Resistance to hydrolysis was measured at 37° C. in 1 ml of the following incubation medium: 8 mM CaCl2, 5 mM tetramisole, 50 mM Tris base, 50 mM imidazole, buffered at pH 7.6, and 100 μM of either ATP or its analogs. […] In both cases the reaction was started by the addition of 1.9 μg of the enzyme preparation and stopped after 7 min with 250 μL of the malachite green reagent. […] Reactions were performed in the same incubation buffer, as previously described and were started by the addition of non-saturating ATP concentrations. Protein concentration was determined with the Bradford microplate assay using bovine serum albumin as a standard of reference (62). […]

NTPDase [2] = target: T1, NTPDase; assay: Resistance to hydrolysis by NTPDase (malachite green phosphate release); type: biochemical, bovine; set-up: To reduce potential artifacts resulting from the solubilisation of NTPDase by detergents, a particulate fraction (prepared as described above) was used; from tissue; host or cells: bovine spleen particulate fraction; conditions: 100 μM analog, 37° C., 7 min, 1.9 μg protein
Protocol: Isolation of particulate fractions. Experiments were carried out with a particulate fraction obtained from bovine spleen according to the method of Sévigny et al. (37). Briefly, bovine spleens were cut in small pieces and homogenized (15-20%) with a Polytron in Tris-saline buffer supplemented with SBTI and PMSF as protease inhibitors. After filtration with cheesecloth and centrifugation at 600 g the supernatant is centrifuged at 22,000 g for 90 min, and the resulting pellet is suspended in bicarbonate buffer and loaded on a sucrose cushion (40%) and centrifuged for two hours at 100,000 g. The fraction floating on the cushion is harvested in five volumes of bicarbonate buffer. The pellet is suspended in Tris buffer/glycerol 7.5% and kept at −20° C.
NTPDase assays. Enzyme activity was routinely measured by the release of inorganic phosphorus with the malachite green colorimetric assay (61). Resistance to hydrolysis was measured at 37° C. in 1 ml of the following incubation medium: 8 mM CaCl2, 5 mM tetramisole, 50 mM Tris base, 50 mM imidazole, buffered at pH 7.6, and 100 μM of either ATP or its analogs. […] In both cases the reaction was started by the addition of 1.9 μg of the enzyme preparation and stopped after 7 min with 250 μL of the malachite green reagent. […] Reactions were performed in the same incubation buffer, as previously described and were started by the addition of non-saturating ATP concentrations. Protein concentration was determined with the Bradford microplate assay using bovine serum albumin as a standard of reference (62).
To reduce potential artifacts resulting from the solubilisation of NTPDase by detergents, a particulate fraction (prepared as described above) was used. […] Also, possible alkaline phosphatase activity was inhibited by tetramisole added to the assays.

P2Y1 receptor = conditions: cited from earlier work
P2Y-purinoceptor = assay: P2Y-receptor assay, intact mesenteric bed, ATP-induced vasodilation; set-up: species or system guinea pig; conditions: 7 μM infusion, ATP 0.1-10000 pmol
Protocol: (§1) Surgical Procedures. Dunkin-Hartley guinea pigs (300-350 g) of either sex were sacrificed by cerival dislocation according to the Canadian Council on Aminal Care. The guinea pig mesentery was prepared as described by Berthiaume et al (63). […] To isolate the mesenteric bed from the intestine, the mesentery was perfused (2 ml/min, for 5 min) via the mesenteric artery with a Krebs solution containing heparin (100 U/ml). The mesentery was then separated by cutting close to the intestine. A resting period of 60 min was then allowed during which the guinea pig mesenteric bed was perfused (2 ml/min) with a warmed (37° C.) and gassed Krebs solution (95% O2 and 5% CO2) containing indomethacin (5 μM), as described earlier. In all the assays, perfusion pressure was increased to obtain a flow rate of 6 ml min^−1. Response of mesenteric bed, precontracted with noradrenaline (200 μM) in 0.9% saline solution, to the different drugs, was measured with a pressure transducer (Statham, model P-23AC) and recorded on a Grass physiograph (model 79D).
P2Y-receptor assays. Intact mesenteric bed vessels were precontracted with noradrenaline (200 μM). […] A resting period between each ATP injection was allowed to return to baseline, as described above. Blood vessel reactivity was assessed by a bolus injection of 3 nmol of NaNP. Response of the endothelium layer was confirmed by injection of NK-1 (100 pmol).

P2X-purinoceptor = assay: P2X-receptor assay, endothelium-denuded mesenteric bed; set-up: species or system guinea pig; conditions: for P2X-R effect: variation of perfusion pressure: bolus 0.1-1000 pmol, denuded mesenteric bed precontracted with noradrenaline
Protocol: as §1
P2X-receptor assays. Guinea pig mesenteric bed was denuded from its endothelium layer by using 20 mM of CHAPS in PBS (63). Briefly, the CHAPS solution was infused for 45 sec, followed by a resting period of 30 min. Finally a second 45 sec infusion of 20 mM CHAPS was carried out. Blood vessels were then precontracted as earlier described. The efficiency of the endothelium removal technique was assessed by an intra-arterial bolus injection of 100 pmol of NK-1 in PBS. Reactivity of the media layer was confirmed by bolus injection of 3 nmol of NaNP (sodium nitroprussiate) in PBS. […] Variation of perfusion pressure were measured. Between each injection of 8-BuS-ATP a resting period was allowed to allow the return of pressure to baseline (i.e. precontracted pressure).

rat astrocytes = conditions: cited from earlier work

Compound: Nc1ncnc2c1nc(Br)n2[C@@H]1O[C@H](COP(=O)(O)OP(=O)(O)OP(=O)(O)O)[C@@H](O)[C@H]1O [8-Br-ATP, reference compound]
hydrolysis by NTPDase / resistance to hydrolysis (NTPDase [2]): a level of hydrolysis

Compound: CCCCNc1nc2c(N)ncnc2n1[C@@H]1O[C@H](COP(=O)(O)OP(=O)(O)OP(=O)(O)O)[C@@H](O)[C@H]1O [compound 7, 8-BuNH-ATP]
hydrolysis by NTPDase / resistance to hydrolysis (NTPDase [2]): a level of hydrolysis

Compound: CCCCOc1nc2c(N)ncnc2n1[C@@H]1O[C@H](COP(=O)(O)OP(=O)(O)OP(=O)(O)O)[C@@H](O)[C@H]1O [compound 8, 8-BuO-ATP]
hydrolysis by NTPDase / resistance to hydrolysis (NTPDase [2]): a level of hydrolysis

Compound: [Star^9,Met(O2)^11]SP [NK-1, reference compound]
vascular response (vasodilation) in denuded mesentery (P2X-purinoceptor; 100 pmol, vessels precontracted with 200 μM noradrenaline): significant response

Continued, in another order:

potency / affinity as NTPDase inhibitor, in words (NTPDase [1]): good inhibitors
Compound: Nc1ncnc2c1nc(SC1CCCCCC1)n2C1OC(COP(=O)(O)OP(=O)(O)OP(=O)(O)O)C(O)C1O (centres unmarked) [6a, 8-(Thiocycloheptyl)-adenosine 5′-triphosphate]
type of NTPDase inhibition (NTPDase [1]; Lineweaver-Burk / Dixon representation): mixed type inhibitors; also recorded: mixed types of inhibition | hydrolysis by NTPDase / resistance to hydrolysis (NTPDase [2]): more resistant to hydrolysis; also recorded: resistant to hydrolysis

hydrolysis by NTPDase / resistance to hydrolysis (NTPDase [2]): a level of hydrolysis
Compound: CCSc1nc2c(N)ncnc2n1[C@@H]1O[C@H](COP(=O)(O)OP(=O)(O)OP(=O)(O)O)[C@@H](O)[C@H]1O [6c, 8-(Thioethyl)-adenosine 5′-triphosphate]

effect on vasodilatory response to ATP (P2Y-R) (P2Y-purinoceptor): does not interact | P2X-R effect: variation of perfusion pressure (P2X-purinoceptor): does not interact
Compound: CCCCSc1nc2c(N)ncnc2n1C1OC(COP(=O)(O)OP(=O)(O)OP(=O)(O)O)C(O)C1O (centres unmarked) [6e, 8-BuS-ATP]
agonism at P2Y1 receptor (P2Y1 receptor): poor agonist | effect on vasodilatory response to ATP (P2Y-R) (P2Y-purinoceptor; listed as 8-BuS-ATP): unmodified; also recorded: No significant difference | P2X-R effect: variation of perfusion pressure (P2X-purinoceptor; listed as 8-BuS-ATP): not able to initiate any P2X-R effect; also recorded: No variations of perfusion pressure | effect on [Ca2+]i level (rat astrocytes): no effect
